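In this assay, cells in 96-well plates receive the compound at five concentrations for 48 hours. Endpoints are linearly interpolated between the surrounding concentrations. At the GI50, growth is halved. Definition used: TGI = concentration required for complete inhibition of growth.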
How the values were obtained:
Experiment in all cases: NCI-60 cell line screen, 48 h
SK-MEL-28 melanoma = test system: SK-MEL-28 melanoma
SNB-75 CNS = test system: SNB-75 CNS
OVCAR-4 ovarian = test system: OVCAR-4 ovarian
KM12 colon = test system: KM12 colon
SNB-19 CNS = test system: SNB-19 CNS
LOX IMVI melanoma = test system: LOX IMVI melanoma
SN12C renal = test system: SN12C renal
SK-OV-3 ovarian = test system: SK-OV-3 ovarian
COLO 205 colon = test system: COLO 205 colon
HT29 colon = test system: HT29 colon
EKVX NSCLC = test system: EKVX NSCLC
TK-10 renal = test system: TK-10 renal
SK-MEL-2 melanoma = test system: SK-MEL-2 melanoma
NCI-H522 lung = test system: NCI-H522 lung
HCT-15 colon = test system: HCT-15 colon
ACHN renal = test system: ACHN renal
HOP-92 NSCLC = test system: HOP-92 NSCLC
SF-268 CNS = test system: SF-268 CNS
SW-620 colon = test system: SW-620 colon
HCT-116 colon = test system: HCT-116 colon
NCI-H226 lung = test system: NCI-H226 lung
K-562 leukemia = test system: K-562 leukemia
786-0 renal = test system: 786-0 renal
NCI-H460 lung = test system: NCI-H460 lung
BT-549 breast = test system: BT-549 breast
MDA-MB-435 = test system: MDA-MB-435
T-47D breast = test system: T-47D breast
SF-539 CNS = test system: SF-539 CNS

`COc1cccc(C#Cc2ccccc2C#CCCCCO)c1` gave a GI50 (SK-MEL-28 melanoma) of 15.3 µM, a TGI (SK-MEL-28 melanoma) of 30.3 µM and a GI50 (SNB-75 CNS) of 12.8 µM. It also gave a TGI (SNB-75 CNS) of 26.3 µM, a GI50 (OVCAR-4 ovarian) of 20.4 µM and a TGI (OVCAR-4 ovarian) of 44.2 µM. The GI50 (KM12 colon) was 12.4 µM, the TGI (KM12 colon) was 41.8 µM and the GI50 (SNB-19 CNS) was 18.5 µM. For the same compound, the TGI (SNB-19 CNS) was 35.5 µM, the GI50 (LOX IMVI melanoma) was 6.3 µM and the TGI (LOX IMVI melanoma) was 21.2 µM. The GI50 (SN12C renal) was 11.6 µM, the TGI (SN12C renal) was 27 µM and the GI50 (SK-OV-3 ovarian) was 17.2 µM. The TGI (SK-OV-3 ovarian) was 32.5 µM, the GI50 (COLO 205 colon) was 17.9 µM and the TGI (COLO 205 colon) was 36.2 µM. The GI50 (HT29 colon) was 12.1 µM, the TGI (HT29 colon) was 27.9 µM and the GI50 (EKVX NSCLC) was 8.74 µM. The TGI (EKVX NSCLC) was 24.3 µM, the GI50 (TK-10 renal) was 13.1 µM and the TGI (TK-10 renal) was 29.6 µM. It also gave a GI50 (SK-MEL-2 melanoma) of 20.5 µM, a TGI (SK-MEL-2 melanoma) of 44.8 µM and a GI50 (NCI-H522 lung) of 13.3 µM. It also gave a TGI (NCI-H522 lung) of 30 µM, a GI50 (HCT-15 colon) of 3.62 µM and a TGI (HCT-15 colon) of 17.7 µM. It also gave a GI50 (ACHN renal) of 11.8 µM, a TGI (ACHN renal) of 25.8 µM and a GI50 (HOP-92 NSCLC) of 2.49 µM. It also gave a TGI (HOP-92 NSCLC) of 21.7 µM, a GI50 (SF-268 CNS) of 16.1 µM and a TGI (SF-268 CNS) of 33.5 µM. It also gave a GI50 (SW-620 colon) of 17.5 µM, a TGI (SW-620 colon) of 35.9 µM and a GI50 (HCT-116 colon) of 12.2 µM. For the same compound, the TGI (HCT-116 colon) was 26.4 µM, the GI50 (NCI-H226 lung) was 15.7 µM and the TGI (NCI-H226 lung) was 40.5 µM. For the same compound, the GI50 (K-562 leukemia) was 1.84 µM, the TGI (K-562 leukemia) was 85.4 µM and the GI50 (786-0 renal) was 12.8 µM. It also gave a TGI (786-0 renal) of 28 µM, a GI50 (NCI-H460 lung) of 16.1 µM and a TGI (NCI-H460 lung) of 34 µM. The GI50 (BT-549 breast) was 3.07 µM, the TGI (BT-549 breast) was 20.2 µM and the GI50 (MDA-MB-435) was 1.92 µM. For the same compound, the TGI (MDA-MB-435) was 8.2 µM, the GI50 (T-47D breast) was 18.5 µM and the TGI (T-47D breast) was 43.1 µM. For the same compound, the GI50 (SF-539 CNS) was 11.5 µM and the TGI (SF-539 CNS) was 24.6 µM.

From PubChem BioAssay (NCI)
